Laboratory results reported in US10610586B2, “Compositions for antigen-specific induction of tolerance” (STALLERGENES, priority 2005, dated 2020).

Legend:
[1] = tested on: BALB/c mice sensitized with OVA; test: Sublingual tolerization in a therapeutic model of type I allergy: airway responsiveness by whole body plethysmography; type: in vivo; details: adjuvant given sublingually together with OVA 500 μg twice a week for 2 months to OVA-sensitized mice; methacholine 50 mg/ml; compared to PBS-treated mice or OVA alone
Procedure: Sensitization was performed by two intraperitoneal (i.p.) injections in 14 days interval with 10 μg OVA adsorbed to 2 mg Al(OH)3 in a total volume of 100 μl. The sensitization was followed by a 20 min aerosol challenge with 1% w/v OVA on 5 consecutive days with an aerosol delivery system (Buxco Europe; Ltd, UK). Control animals were sham treated with sterile PBS. For tolerance induction in a therapeutic model, sensitized mice were sublingually treated with OVA or OVA plus adjuvant every week, twice a week, during 2 months at a concentration of 500 μg (20 μl). Control mice were sensitized with OVA followed by sham tolerization with PBS. Measurements of airway responsiveness were performed by whole body plethysmography (Buxco Europe; Ltd, UK), 48 h after the last challenge for sensitisation or tolerization. Airflow signals were recorded in response to aerosolized methacholine (50 mg/ml), 1 minute, four times. The higher value of Penh (enhanced pause) was taken into account for the calculation of the Penh index (Penh index=Penh measured/Penh PBS).

TGF-β = TGF-β production in supernatant of spleen cell cultures after sublingual tolerization; type: in vivo; details: OVA-sensitized mice treated sublingually with OVA plus adjuvant; compared to PBS-treated mice or OVA alone
Procedure: For tolerance induction in a therapeutic model, sensitized mice were sublingually treated with OVA or OVA plus adjuvant every week, twice a week, during 2 months at a concentration of 500 μg (20 μl). Control mice were sensitized with OVA followed by sham tolerization with PBS. Dosage of TGF-β from supernatants of spleen cell cultures was performed with an ELISA kit (R&D systems). Mice were killed by cervical dislocation. Spleens cells were isolated and plated in triplicate in 96-well flat-bottomed ELISPOT plates (Millipore, Massachussets) at densities of 2×10^5 cells per well. Different conditions were used: medium alone, OVA (100μg/ml) and PMA (phorbol myristyl acetate) (50 ng/ml, Sigma)/ionomycin (500 ng/ml, Sigma) which was used as positive control. Spot forming cells (SFCs) were monitored for IFN-γ, IL-5 and IL10. Elispot kits were from R&D systems Europe.

human T cells = test: Gene expression by human T cells after coculture with adjuvant-treated DC (quantitative PCR); type: cell-based; details: human DC treated with adjuvant 24 h, cultured with allogenic naive CD4+ T cells, mRNA 24 h to 5 days later; only above 2-fold increase considered significant
Procedure: Dendritic cells DC were treated with candidate adjuvants for 24 h, washed and cultured with purified allogenic naïve CD4+ T cells. mRNAs were extracted 24 h to 5 days later and gene expression was assessed by quantitative PCR with primers specific for the tested genes. Only data above 2-fold increase were considered as significant.
A human in vitro model, consisting of a coculture of human pretreated DC with allogenic T cells, has been used to select IL-10-inducing adjuvants. Briefly, human DC were treated with adjuvants. After 24 h, the DC were washed and cultured with allogenic naive CD4+ T cells. After 24 h to 5 days, gene expression in human T cells was assessed by quantitative PCR.

In the case of Lactobacillus plantarum [L. plantarum], the “airway responsiveness (Penh in response to methacholine)” value [1] is reported as “reduction of airway responsiveness”, the “TGF-β production in supernatant of spleen cell cultures” value (TGF-β) is reported as “enhanced” and the “Gene expression by T cells: IL10” value (human T cells) is reported as “induce IL10 gene expression”.
